Experiment [1] deals with human subjects. The experiment can be described thus: Human study, six adult males ingesting 200-800 mg aegeline per day: effects reported by subjects. Type of experiment: in vivo. The text has this:
In a separate study, the compound aegeline was orally administered to six human subjects. The volunteer subjects were all non-smoking males between the ages of 24-36.

In experiment [2] the test system is human subjects. Briefly: Initial human study, two male subjects ingesting aegeline for 12-18 weeks, reported effects. Type of experiment: in vivo. As to conditions: for libido: male volunteers.

“Also recorded” adds a separate entry of the source.

The record followed here is patent US20140134283A1, “Compositions and Methods for Affecting Mental State and Body Composition” (USPLABS. LLC, priority 2012, published 2014).

Consider `COc1ccc(C(O)CNC(=O)/C=C/c2ccccc2)cc1` (stereo not shown) [aegeline, N-[2-hydroxy-2(4-methoxyphenyl)ethyl]-3-phenyl-2-propenamide], for which, in experiment [1] (200 mg per day), the anabolic effects result is “became apparent after extended use”, the thermogenic effect result is reported as “very apparent” and the “time of daily administration until anabolic effects became apparent” value is on record as “around 7 days”. In addition, the libido entry in experiment [1] (400 mg per day) is “very apparent and prolonged increase”. Besides, in experiment [1] (daily dose of 200 mg), the effect on libido result was “further increased”; the “effects on mental stamina, energy level, focus, and mood” value is given as “very apparent”. Also, in experiment [1] (daily dose of 400 mg), the anabolic effects entry was “immediately apparent”. Besides, in experiment [1] (doses above 400 mg per day), the “dose-dependency of effects on mental stamina, energy level, focus, and mood” value is “not readily observed”. Also, in experiment [1] (one subject, daily dose of 800 mg), the “physical performance for exercise and strength training activities” value is “improved physical performance”. In experiment [2] (daily dose of 80 mg), the effect on thermogenesis result is recorded as “without a very noticeable effect; also recorded: not very noticeable”; the “mental stamina, focus, and mood” value is “effective to increase or improve”. In addition, in experiment [2] (daily dose of 120 mg), the “duration of effects on mental stamina, focus, and mood after effect onset” value is 8 to 10 h; the “mental stamina, focus, and mood” value is reported as “further increased or improved”; the thermogenic effect result was “noticeable but not very apparent; also recorded: noticeable”. Also, the “mental stamina, focus, energy level, mood and thermogenesis” value in experiment [2] (dose increase to 150-180 mg) is recorded as “further enhanced or increased”. The libido result in experiment [2] (daily dose of 150 mg) was “increased libido; also recorded: effective to increase libido”. In experiment [2] (daily doses lower than 150 mg), the libido entry was “not at the lower daily doses”. The reported effects entry in experiment [2] (two male subjects, 20-60 mg per day) is “no immediate apparent effects”. Besides, the “mental stamina, focus and concentration, energy level, and mood” value in experiment [2] (two male subjects, 80-150 mg per day) was “increased or improved”.
